In the oligonucleotide strings, read from the 5' end, every base follows the letter of its sugar. An asterisk marks phosphorothioate; unmarked linkages are phosphodiester. Other units and linkages are bracketed, terminal groups are in braces. A string of capitals states the bases alone. d = 2'-deoxy (DNA); m = 2'-O-methyl; r = 2'-OH (RNA)
Test system: PCSK9 mRNA
Assay: PCSK9 siRNA screening in HepG2 cells (lipofectamine 2000 transfection, PCSK9 mRNA by Quantigene, normalized to GAP-DH)
Type: cell-based, human
Details: for Mean percent remaining mRNA transcript at siRNA concentration/in cell type 30 nM/HepG2: 30 nM siRNA; for Mean percent remaining mRNA transcript at siRNA concentration/in cell type 3 nM/HepG2: 3 nM siRNA; for Mean percent remaining mRNA transcript at siRNA concentration/in cell type 100 nM/HepG2: 100 nM siRNA
Procedure, shortened: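 HepG2 cells, grown in MEM with 10% fetal calf serum, antibiotics, non-essential amino acids and sodium pyruvate at 37° C. and 5% CO2, were plated at 2.0×10^4 cells/well in 96-well plates and transfected directly with siRNA using lipofectamine 2000. After 24 hours, cells were lysed and PCSK9 mRNA was measured by Quantigene and normalized to GAP-DH mRNA.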

Substance	Mean percent remaining mRNA transcript at siRNA concentration/in cell type 30 nM/HepG2 [%]	IC50 [nM]	Mean percent remaining mRNA transcript at siRNA concentration/in cell type 3 nM/HepG2 [%]	Mean percent remaining mRNA transcript at siRNA concentration/in cell type 100 nM/HepG2 [%]
AD-9537: PCSK9 siRNA (sense rArCrGrGrUrArCrCrGrGrGrCrGrGrArUrGrArAdT*dT; antisense rUrUrCrArUrCrCrGrCrCrCrGrGrUrArCrCrGrUdT*dT)	145	–	–	–
AD-9315: PCSK9 siRNA (sense rGrCrGrGrCrArCrCrCrUrCrArUrArGrGrCrCrUdT*dT; antisense rArGrGrCrCrUrArUrGrArGrGrGrUrGrCrCrGrCdT*dT)	15	0.98	32	–
AD-9526: PCSK9 siRNA (sense rUrCrCrCrArGrCrCrArGrGrArUrUrCrCrGrCrGdT*dT; antisense rCrGrCrGrGrArArUrCrCrUrGrGrCrUrGrGrGrAdT*dT)	89	–	–	74
AD-9549: PCSK9 siRNA (sense rGrGrGrCrCrCrArCrArArCrGrCrUrUrUrUrGrGdT*dT; antisense rCrCrArArArArGrCrGrUrUrGrUrGrGrGrCrCrCdT*dT)	50	–	–	–
AD-9698: PCSK9 siRNA (sense mCmCrArGrGmUrGmCmUrGmCmCmUrGmCmUrAmCmCdT*dT; antisense rGrGmUrArGmCrArGrGmCrArGmCrArCrCrUrGrGdT*dT)	73	–	–	–
AD-9573: PCSK9 siRNA (sense rArUrGrGrUrCrArCrCrGrArCrUrUrCrGrArGrAdT*dT; antisense rUrCrUrCrGrArArGrUrCrGrGrUrGrArCrCrArUdT*dT)	36	1.6	42	–
AD-9749: PCSK9 siRNA (sense rGmUmCrArGmCmUmCmCrArGrGmCrGrGmUmCmCmUdT*dT; antisense rArGrGrArCrCrGrCrCrUrGrGrArGrCrUrGrArCdT*dT)	105	–	–	–
AD-9540: PCSK9 siRNA (sense rArGrArGrUrGrArCrCrArCrCrGrGrGrArArArUdT*dT; antisense rArUrUrUrCrCrCrGrGrUrGrGrUrCrArCrUrCrUdT*dT)	45	–	–	–
AD-9695: PCSK9 siRNA (sense rArGmCmUmCmCmUrGmCrAmCrArGmUmCmCmUmCmCdT*dT; antisense rGrGrArGrGrArCrUrGrUrGmCrArGrGrArGrCrUdT*dT)	102	–	–	–
AD-9632: PCSK9 siRNA (sense rCrArArCrUrUrUrGrGrCrCrGrCrUrGrUrGrUrGdT*dT; antisense rCrArCrArCrArGrCrGrGrCrCrArArArGrUrUrGdT*dT)	34	–	–	–
AD-9524: PCSK9 siRNA (sense rGrCrUrGrGrUrGrCrUrArGrCrCrUrUrGrCrGrUdT*dT; antisense rArCrGrCrArArGrGrCrUrArGrCrArCrCrArGrCdT*dT)	23	0.07	28	–
AD-9516: PCSK9 siRNA (sense rUrGrUrArUrCrUrCrCrUrArGrArCrArCrCrArGdT*dT; antisense rCrUrGrGrUrGrUrCrUrArGrGrArGrArUrArCrAdT*dT)	94	–	–	–
AD-9554: PCSK9 siRNA (sense rUrUrCrUrArGrArCrCrUrGrUrUrUrUrGrCrUrUdT*dT; antisense rArArGrCrArArArArCrArGrGrUrCrUrArGrArAdT*dT)	23	–	24	–
AD-9674: PCSK9 siRNA (sense rGmCrArGmUmCrArGrArGmCrGmCrAmCmUrGmCmCdT*dT; antisense rGrGmCrArGrUrGrCrGrCrUrCrUrGrArCrUrGrCdT*dT)	36	–	57	–
AD-9627: PCSK9 siRNA (sense rArGrArGrArCrUrGrArUrCrCrArCrUrUrCrUrCdT*dT; antisense rGrArGrArArGrUrGrGrArUrCrArGrUrCrUrCrUdT*dT)	69	–	–	–
AD-9673: PCSK9 siRNA (sense mCmUmCrGmCrArGmUmCrArGrArGmCrGmCrAmCmUdT*dT; antisense rArGrUrGrCrGrCrUrCrUrGrArCrUrGrCrGrArGdT*dT)	56	–	57	–
AD-9620: PCSK9 siRNA (sense rCrArGrGrArGrCrCrGrGrGrArCrGrUrCrArGrCdT*dT; antisense rGrCrUrGrArCrGrUrCrCrCrGrGrCrUrCrCrUrGdT*dT)	77	–	–	44
AD-9759: PCSK9 siRNA (sense mUrGrGmUmCrAmCmCrGmCmUrGmCmCrGrGmCrArAdT*dT; antisense rUrUrGrCrCrGrGmCrArGrCrGrGrUrGrArCmCrAdT*dT)	111	–	–	–
AD-9582: PCSK9 siRNA (sense rCrCrArGrCrArUrCrCrArCrGrCrUrUrCrCrUrGdT*dT; antisense rCrArGrGrArArGrCrGrUrGrGrArUrGrCrUrGrGdT*dT)	37	–	–	–
AD-9670: PCSK9 siRNA (sense mUrGrArGrGrAmCmCrArGmCrGrGrGmUrAmCmUrGdT*dT; antisense mCrArGmUrArCrCrCrGrCrUrGrGrUrCrCrUmCrAdT*dT)	67	–	–	–
AD-9734: PCSK9 siRNA (sense mUrGmCmUrArGmCmCmUmUrGmCrGmUmUmCmCrGrAdT*dT; antisense rUrCrGrGrArArCrGmCrArArGrGrCmUrArGmCrAdT*dT)	91	–	–	–
AD-9757: PCSK9 siRNA (sense mCmUmCmUrGmCmCrArArArGrAmUrGmUmCrAmUmCdT*dT; antisense rGrArUrGrAmCrArUrCrUrUrUrGrGmCrArGrArGdT*dT)	78	–	–	–
AD-9557: PCSK9 siRNA (sense rCrCrArCrCrGrGrGrArArArUrCrGrArGrGrGrCdT*dT; antisense rGrCrCrCrUrCrGrArUrUrUrCrCrCrGrGrUrGrGdT*dT)	96	–	–	75
AD-9562: PCSK9 siRNA (sense rUrCrUrCrCrUrArGrArCrArCrCrArGrCrArUrAdT*dT; antisense rUrArUrGrCrUrGrGrUrGrUrCrUrArGrGrArGrAdT*dT)	46	–	51	–
AD-9726: PCSK9 siRNA (sense rGmUmCrGmUrGmCmUrGrGmUmCrAmCmCrGmCmUrGdT*dT; antisense mCrArGrCrGrGrUrGrArCmCrArGmCrArCrGrArCdT*dT)	95	–	–	–
AD-9523: PCSK9 siRNA (sense rCrArGrCrCrArGrGrArUrUrCrCrGrCrGrCrGrCdT*dT; antisense rGrCrGrCrGrCrGrGrArArUrCrCrUrGrGrCrUrGdT*dT)	55	–	–	–

— US20120016009A1, “Optimized Methods For Delivery Of DSRNA Targeting The PCSK9 Gene” (priority 2008, published 2012)
